# Experiments:
# Assay type in all cases: physicochemical
# [1] = Durability of the Razo cis-trans interconversion; details: blue then UV to photostationary states, repeated 15 times
# Procedure: (§1) Razo as a stock solution of 70 mM in DMSO was diluted to 25 μM Razo in buffer (20 mM Tris-HCl, pH 7.4, 40 mM KCl). Absorbance spectra were acquired on a PerkinElmer UV-Vis spectrometer and sample illumination light was from a Lumencor Aura light engine, with a Blue light output centered on 475 nm with 28 nm bandpass filter and UV light output centered on 360 nm with a 28 nm bandpass filter. cis-Razo and trans-Razo Absorbance spectra shapes agreed with those from the paper where Razo was originally developed (Wang, et al. Angew. Chem., Int. Ed. 2010, 49, 5305). We aimed to characterize several features of the isomerization that are relevant to inform printing parameters for patterning of the substrate: light kinetics, dark kinetics, and durability.
# Blue light was applied until the trans-dominated photostationary state was reached (blue curve in FIG. 5). Then UV light was applied until the cis-dominated photostationary state was reached (purple curve in FIG. 5).
# [2] = Razo cis-trans conversion using light (UV-Vis absorbance spectra)
# Procedure: as §1
# After a long Blue (referred to as ‘visible’ in legend) light exposure to drive Razo to a trans dominated photostationary state, the amount of UV light necessary to drive Razo to the cis dominated photostationary state was determined to be roughly 10 seconds at 25% power (approximately 15 mW/cm^2).
# After a long UV light exposure to drive Razo to a cis dominated photostationary state, the amount of Blue light necessary to drive Razo to the trans dominated photostationary state was determined to be roughly 10 seconds at 50% power (approximately 50 mW/cm^2).
# [3] = Razo cis-trans thermal conversion in the dark; details: after long UV exposure, kept in the dark for 15 minutes
# Procedure: as §1
# After a long UV exposure to drive Razo to the cis dominated photostationary state, the sample was kept in the dark for 15 and 90 minutes.
structure (smiles),measurement,setting,value
C[N+]1(CCOc2ccc(/N=N/c3ccc(OCC[N+]4(C)CCCCC4)cc3)cc2)CCCCC1 [Razo],isomerization efficiency over repeated blue/UV cycles,[1],isomerization efficiency is maintained over 15 cycles
same,amount of UV light necessary to drive Razo to the cis dominated photostationary state,"[2]; 25 μM Razo in buffer (20 mM Tris-HCl, pH 7.4, 40 mM KCl), after long Blue exposure, UV 360 nm at 25% power (approximately 15 mW/cm^2)",roughly 10 seconds
same,amount of Blue light necessary to drive Razo to the trans dominated photostationary state,"[2]; 25 μM Razo in buffer, after long UV exposure, Blue 475 nm at 50% power (approximately 50 mW/cm^2)",roughly 10 seconds
same,relaxation of cis to trans in the dark,[3],almost no relaxation of cis to trans
